Test results published in patent US7994127B2, “Treatment of rett syndrome” (Massachusetts Institute of Technology, priority 2007, dated 2011).
Entries after “also recorded” stand apart in the source; their conditions may differ.

Columns and labels:
[1] = test system: layer 5 pyramidal neurons in motor cortex of MeCP2 knockout mice; assay: Golgi staining, dendritic spine density and morphology; assay type: in vivo, mouse
MeCP2−/y mice = assay: Heart rate measurements (real time cardiac pulse rate, tail clip sensor); assay type: in vivo, mouse; conditions: 8 week old MeCP2−/y mice, treated from P15 (6 weeks), non-anesthetized
[2] = test system: neurons in the CA3 region of the hippocampus; assay: Neuron soma size in hippocampus; assay type: in vivo, mouse
Procedure: We also measured the effect of (1-3)IGF1 treatment on neuron soma size in hippocampus. Mice were treated with (1-3)IGF1 as described above for locomotor activity.

Overall brain weight = assay type: in vivo, mouse; conditions: as a result of knockout and treatment (Discussion)
[3] = in vivo; cited from earlier work
wild type young mice = conditions: Tropea et al., 2006; cited from earlier work
MeCP2 KO mice = assay: Nocturnal activity measurements (infrared beam interruptions); assay type: in vivo, mouse; conditions: for nocturnal locomotor activity, beam interruptions over 10 hours (FIG. 4B): 6 to 17 weeks of age
Procedure: (1-3)IGF-1 treatment: For the survival measurements, the nocturnal activity analysis and the immunoblot analysis, (1-3) IGF-1 (Bachem Biosciences # H22468) was administered daily via intra-peritoneal injections (0.01 mg/g body weight, vehicle=saline, 0.01% BSA). The treatment was started at P15 and maintained throughout the course of the experiments. For intracellular physiology experiments, the mice were injected daily (0.01 mg/g body weight, vehicle=saline, 0.01% BSA) for 2 weeks, from P15 to P28-P32 when they were used for acute slice preparation. For optical imaging experiments, mice were injected with (1-3) IGF-1 (0.02 mg/g body weight, vehicle=saline, 0.01% BSA) daily from the day of the lid suture to the day of imaging. Slice physiology preparation: Coronal sections (300 μm thick) at or near sensorimotor cortex were cut in <4° C. ACSF using a Vibratome. Slices were incubated at 37° C. for 20 minutes after slicing, and at room temperature for the remainder of the experiment. Slices were transferred to a Warner chamber and recordings were taken from visually identified pyramidal neurons located in layer 5. Artificial cerebral spinal fluid (ACSF) contained 126 mM NaCl, 25 mM NaHCO3, 1 mM NaHPO4, 3 mM KCl, 2 mM MgSO4, 2 mM CaCl2, and 14 mM dextrose, was adjusted to 315-320 mOsm and 7.4 pH, and was bubbled with 95% O2/5% CO2. The intracellular pipette solution contained 100 mM potassium gluconate, 20 mM KCl, 10 mM HEPES, 4 mM MgATP, 0.3 mM NaGTP, and 10 mM Na-phosphocreatine. […] Cells were visualized with an Achroplan 40× water-immersion lens with infrared-DIC optics (Zeiss) and detected with an infrared camera (Hamamatsu) projecting to a video monitor. […] Then in current clamp ˜10 pulses (500 ms, 40-140 pA at 10 pA increments), were applied to quantify evoked firing rates and cellular excitability. […] Analysis was performed using a custom software package written in Matlab, with all events detected according to automated thresholds and blindly verified for each event individually by the experimenter. […]

[4] = P28, knockout treated vs knockout and wild-type

Structure (SMILES): NCC(=O)N1CCC[C@H]1C(=O)N[C@@H](CCC(=O)O)C(=O)O [(1-3)IGF-1, glycyl-L-prolyl-L-glutamic acid]
- over-representation of thin (immature) spines (FIG. 2D) ([1]; P28, knockout treated vs knockout): not ameliorated by the treatment
- % mushroom (mature) spines (FIG. 2D) [1, 4]: reduced in the knockout compared to wild-type and knockout treated with (1-3)IGF1
- dendritic spine density (spines per length of dendrite, FIG. 2C) [1, 4]: spine densities more similar to wild-type values
- average dendritic branch thickness (FIG. 2E) ([1]; P28, wild-type, knockout, knockout treated): did not vary
- heart rate distribution / occurrence of irregular, lower heart rate (bradycardia, FIG. 4A) (MeCP2−/y mice): significantly reduced; also recorded: partial rescue of the KO phenotype
- average soma size (cell perimeter, FIG. 7) ([2]; MeCP2 KO animals, treated as for locomotor activity): increased average soma size in KO animals
- size of cell bodies ([2]; as a result of the knockout or treatment (Discussion)): no change was observed
- soma size (cell perimeter, FIG. 7) ([2]; wild type animals treated): had no effect on soma size in wild type animals
- overall brain weight (Overall brain weight): small changes were seen
- crossing the blood-brain barrier [3]: capable of crossing the blood-brain barrier
- OD plasticity (wild type young mice): abolish OD plasticity
- nocturnal locomotor activity, beam interruptions over 10 hours (FIG. 4B) (MeCP2 KO mice; MeCP2 KO mice, 0.01 mg/g IP daily from P15, vs vehicle KO): elevated these levels; also recorded: more active than vehicle-treated KO animals (KO) but not as active as WT
- nocturnal locomotor activity, beam interruptions over 10 hours (FIG. 4B) (MeCP2 KO mice; wild-type mice treated (WT-T) vs WT): failing to increase activity in wild-type animals; also recorded: not significantly more active than WT
- nocturnal locomotor activity, beam interruptions over 10 hours (FIG. 6) (MeCP2 KO mice; young mice, 4 to 5 weeks of age): treatment did not change activity levels
